According to patent US12227495B2, “Herbicidal compounds” (SYNGENTA CROP PROTECTION AG, priority 2018, dated 2025):

What was measured:
Assay type in all cases: in vivo
Conditions in all cases: evaluated after 13 days
[1] = system: Amaranthus retoflexus (AMARE); assay: Post-emergence herbicide test, glasshouse, percentage damage
Method: (§1) Seeds of a variety of test species are sown in standard soil in pots (Lolium perenne (LOLPE), Solanum nigrum (SOLNI), Amaranthus retoflexus (AMARE), Setaria faberi (SETFA), Echinochloa crus-galli (ECHCG), Ipomoea hederacea (IPOHE)). After cultivation for one day (pre-emergence) or after 8 days cultivation (post-emergence) under controlled conditions in a glasshouse (at 24/16° C., day/night; 14 hours light; 65% humidity), the plants are sprayed with an aqueous spray solution derived from the formulation of the technical active ingredient in acetone/water (50:50) solution containing 0.5% Tween 20 (polyoxyethelyene sorbitan monolaurate, CAS RN 9005-64-5). Compounds are applied at 500 g/ha unless otherwise stated. The test plants are then grown in a glasshouse under controlled conditions in a glasshouse (at 24/16° C., day/night; 14 hours light; 65% humidity) and watered twice daily. After 13 days for pre and post-emergence, the test is evaluated for the percentage damage caused to the plant. The biological activities are shown in the following table on a five point scale (5=81-100%; 4=61-80%; 3=41-60%; 2=21-40%; 1=0-20%).

[2] = system: Echinochloa crus-galli (ECHCG); assay: as above
Method: as §1

[3] = system: Ipomoea hederacea (IPOHE); assay: as above
Method: as §1

Lolium perenne (LOLPE) [4] = assay: as above
Method: as §1

Setaria faberi (SETFA) [5] = assay: as above
Method: as §1

Solanum nigrum (SOLNI) [6] = assay: as above
Method: as §1

[7] = system: Amaranthus retoflexus (AMARE); assay: Pre-emergence herbicide test, glasshouse, percentage damage
Method: as §1

[8] = system: Echinochloa crus-galli (ECHCG); assay: as above
Method: as §1

[9] = system: Ipomoea hederacea (IPOHE); assay: as above
Method: as §1

Lolium perenne (LOLPE) [10] = assay: as above
Method: as §1

Setaria faberi (SETFA) [11] = assay: as above
Method: as §1

Solanum nigrum (SOLNI) [12] = assay: as above
Method: as §1

Fc1cccc(Oc2ncc(Cl)cc2Cl)c1-c1cc(C(F)F)no1 [Compound A4]
2 (2=21-40%): Pre-emergence Test ECHCG percentage damage (five point scale) ([8]; rate 500 g/ha) | Pre-emergence Test SETFA percentage damage (five point scale) (Setaria faberi (SETFA) [11]; rate 500 g/ha)
5 (5=81-100%): percentage damage caused to the plant, AMARE ([1]; 500 g/ha) | percentage damage caused to the plant, SOLNI (Solanum nigrum (SOLNI) [6]; 500 g/ha)
1 (1=0-20%): percentage damage caused to the plant, ECHCG ([2]; 500 g/ha) | percentage damage caused to the plant, IPOHE ([3]; 500 g/ha) | percentage damage caused to the plant, LOLPE (Lolium perenne (LOLPE) [4]; 500 g/ha) | Pre-emergence Test IPOHE percentage damage (five point scale) ([9]; rate 500 g/ha) | Pre-emergence Test LOLPE percentage damage (five point scale) (Lolium perenne (LOLPE) [10]; rate 500 g/ha)
3 (3=41-60%): percentage damage caused to the plant, SETFA (Setaria faberi (SETFA) [5]; 500 g/ha) | Pre-emergence Test AMARE percentage damage (five point scale) ([7]; rate 500 g/ha) | Pre-emergence Test SOLNI percentage damage (five point scale) (Solanum nigrum (SOLNI) [12]; rate 500 g/ha)

Fc1cccc(Oc2ccc(C(F)(F)F)cn2)c1-c1cc(C(F)F)no1 [Compound A6]
3 (3=41-60%): percentage damage caused to the plant, IPOHE ([3]; 500 g/ha)
2 (2=21-40%): Pre-emergence Test IPOHE percentage damage (five point scale) ([9]; rate 500 g/ha)
5 (5=81-100%): percentage damage caused to the plant, ECHCG ([2]; 500 g/ha) | percentage damage caused to the plant, SETFA (Setaria faberi (SETFA) [5]; 500 g/ha) | percentage damage caused to the plant, SOLNI (Solanum nigrum (SOLNI) [6]; 500 g/ha) | Pre-emergence Test AMARE percentage damage (five point scale) ([7]; rate 500 g/ha) | Pre-emergence Test SETFA percentage damage (five point scale) (Setaria faberi (SETFA) [11]; rate 500 g/ha) | Pre-emergence Test SOLNI percentage damage (five point scale) (Solanum nigrum (SOLNI) [12]; rate 500 g/ha)
4 (4=61-80%): percentage damage caused to the plant, AMARE ([1]; 500 g/ha) | percentage damage caused to the plant, LOLPE (Lolium perenne (LOLPE) [4]; 500 g/ha) | Pre-emergence Test ECHCG percentage damage (five point scale) ([8]; rate 500 g/ha) | Pre-emergence Test LOLPE percentage damage (five point scale) (Lolium perenne (LOLPE) [10]; rate 500 g/ha)

Fc1cccc(Oc2cccc(F)c2-c2cc(C(F)F)no2)n1 [Compound A7]
5 (5=81-100%): percentage damage caused to the plant, SETFA (Setaria faberi (SETFA) [5]; 500 g/ha) | percentage damage caused to the plant, SOLNI (Solanum nigrum (SOLNI) [6]; 500 g/ha) | Pre-emergence Test AMARE percentage damage (five point scale) ([7]; rate 500 g/ha) | Pre-emergence Test SOLNI percentage damage (five point scale) (Solanum nigrum (SOLNI) [12]; rate 500 g/ha)
2 (2=21-40%): percentage damage caused to the plant, AMARE ([1]; 500 g/ha) | percentage damage caused to the plant, IPOHE ([3]; 500 g/ha) | percentage damage caused to the plant, LOLPE (Lolium perenne (LOLPE) [4]; 500 g/ha)
1 (1=0-20%): Pre-emergence Test IPOHE percentage damage (five point scale) ([9]; rate 500 g/ha) | Pre-emergence Test LOLPE percentage damage (five point scale) (Lolium perenne (LOLPE) [10]; rate 500 g/ha)
4 (4=61-80%): percentage damage caused to the plant, ECHCG ([2]; 500 g/ha) | Pre-emergence Test ECHCG percentage damage (five point scale) ([8]; rate 500 g/ha) | Pre-emergence Test SETFA percentage damage (five point scale) (Setaria faberi (SETFA) [11]; rate 500 g/ha)

Fc1cccc(Oc2cc(C(F)(F)F)ccn2)c1-c1cc(C(F)F)no1 [Compound A8]
3 (3=41-60%): Pre-emergence Test SETFA percentage damage (five point scale) (Setaria faberi (SETFA) [11]; rate 500 g/ha)
1 (1=0-20%): percentage damage caused to the plant, IPOHE ([3]; 500 g/ha) | percentage damage caused to the plant, LOLPE (Lolium perenne (LOLPE) [4]; 500 g/ha) | Pre-emergence Test IPOHE percentage damage (five point scale) ([9]; rate 500 g/ha) | Pre-emergence Test LOLPE percentage damage (five point scale) (Lolium perenne (LOLPE) [10]; rate 500 g/ha)
4 (4=61-80%): percentage damage caused to the plant, SETFA (Setaria faberi (SETFA) [5]; 500 g/ha) | Pre-emergence Test SOLNI percentage damage (five point scale) (Solanum nigrum (SOLNI) [12]; rate 500 g/ha)
5 (5=81-100%): percentage damage caused to the plant, SOLNI (Solanum nigrum (SOLNI) [6]; 500 g/ha) | Pre-emergence Test AMARE percentage damage (five point scale) ([7]; rate 500 g/ha)
2 (2=21-40%): percentage damage caused to the plant, AMARE ([1]; 500 g/ha) | percentage damage caused to the plant, ECHCG ([2]; 500 g/ha) | Pre-emergence Test ECHCG percentage damage (five point scale) ([8]; rate 500 g/ha)

Fc1cccc(Oc2ccc(Cl)cn2)c1-c1cc(C(F)F)no1 [Compound A9]
4 (4=61-80%): percentage damage caused to the plant, IPOHE ([3]; 500 g/ha) | Pre-emergence Test LOLPE percentage damage (five point scale) (Lolium perenne (LOLPE) [10]; rate 500 g/ha)
3 (3=41-60%): Pre-emergence Test IPOHE percentage damage (five point scale) ([9]; rate 500 g/ha)
5 (5=81-100%): percentage damage caused to the plant, AMARE ([1]; 500 g/ha) | percentage damage caused to the plant, ECHCG ([2]; 500 g/ha) | percentage damage caused to the plant, LOLPE (Lolium perenne (LOLPE) [4]; 500 g/ha) | percentage damage caused to the plant, SETFA (Setaria faberi (SETFA) [5]; 500 g/ha) | percentage damage caused to the plant, SOLNI (Solanum nigrum (SOLNI) [6]; 500 g/ha) | Pre-emergence Test AMARE percentage damage (five point scale) ([7]; rate 500 g/ha) | Pre-emergence Test ECHCG percentage damage (five point scale) ([8]; rate 500 g/ha) | Pre-emergence Test SETFA percentage damage (five point scale) (Setaria faberi (SETFA) [11]; rate 500 g/ha) | Pre-emergence Test SOLNI percentage damage (five point scale) (Solanum nigrum (SOLNI) [12]; rate 500 g/ha)

Fc1cnc(Oc2cccc(F)c2-c2cc(C(F)F)no2)c(F)c1 [Compound A10]
5 (5=81-100%): percentage damage caused to the plant, AMARE ([1]; 500 g/ha) | percentage damage caused to the plant, ECHCG ([2]; 500 g/ha) | percentage damage caused to the plant, IPOHE ([3]; 500 g/ha) | percentage damage caused to the plant, LOLPE (Lolium perenne (LOLPE) [4]; 500 g/ha) | percentage damage caused to the plant, SETFA (Setaria faberi (SETFA) [5]; 500 g/ha) | percentage damage caused to the plant, SOLNI (Solanum nigrum (SOLNI) [6]; 500 g/ha) | Pre-emergence Test AMARE percentage damage (five point scale) ([7]; rate 500 g/ha) | Pre-emergence Test ECHCG percentage damage (five point scale) ([8]; rate 500 g/ha) | Pre-emergence Test IPOHE percentage damage (five point scale) ([9]; rate 500 g/ha) | Pre-emergence Test LOLPE percentage damage (five point scale) (Lolium perenne (LOLPE) [10]; rate 500 g/ha) | Pre-emergence Test SETFA percentage damage (five point scale) (Setaria faberi (SETFA) [11]; rate 500 g/ha) | Pre-emergence Test SOLNI percentage damage (five point scale) (Solanum nigrum (SOLNI) [12]; rate 500 g/ha)

N#Cc1ccc(Oc2cccc(F)c2-c2cc(C(F)F)no2)nc1 [Compound A12]
5 (5=81-100%): percentage damage caused to the plant, AMARE ([1]; 500 g/ha) | percentage damage caused to the plant, ECHCG ([2]; 500 g/ha) | percentage damage caused to the plant, IPOHE ([3]; 500 g/ha) | percentage damage caused to the plant, LOLPE (Lolium perenne (LOLPE) [4]; 500 g/ha) | percentage damage caused to the plant, SETFA (Setaria faberi (SETFA) [5]; 500 g/ha) | percentage damage caused to the plant, SOLNI (Solanum nigrum (SOLNI) [6]; 500 g/ha) | Pre-emergence Test AMARE percentage damage (five point scale) ([7]; rate 500 g/ha) | Pre-emergence Test ECHCG percentage damage (five point scale) ([8]; rate 500 g/ha) | Pre-emergence Test IPOHE percentage damage (five point scale) ([9]; rate 500 g/ha) | Pre-emergence Test LOLPE percentage damage (five point scale) (Lolium perenne (LOLPE) [10]; rate 500 g/ha) | Pre-emergence Test SETFA percentage damage (five point scale) (Setaria faberi (SETFA) [11]; rate 500 g/ha) | Pre-emergence Test SOLNI percentage damage (five point scale) (Solanum nigrum (SOLNI) [12]; rate 500 g/ha)

O=[N+]([O-])c1ccc(Oc2ccccc2-n2cc(C(F)(F)F)cn2)nc1 [Compound A14, 5-nitro-2-[2-[4-(trifluoromethyl)pyrazol-1-yl]phenoxy]pyridine]
5 (5=81-100%): percentage damage caused to the plant, AMARE ([1]; 1000 g/ha) | percentage damage caused to the plant, ECHCG ([2]; 1000 g/ha) | percentage damage caused to the plant, LOLPE (Lolium perenne (LOLPE) [4]; 1000 g/ha) | percentage damage caused to the plant, SETFA (Setaria faberi (SETFA) [5]; 1000 g/ha) | percentage damage caused to the plant, SOLNI (Solanum nigrum (SOLNI) [6]; 1000 g/ha) | Pre-emergence Test AMARE percentage damage (five point scale) ([7]; rate 1000 g/ha) | Pre-emergence Test ECHCG percentage damage (five point scale) ([8]; rate 1000 g/ha) | Pre-emergence Test LOLPE percentage damage (five point scale) (Lolium perenne (LOLPE) [10]; rate 1000 g/ha) | Pre-emergence Test SETFA percentage damage (five point scale) (Setaria faberi (SETFA) [11]; rate 1000 g/ha) | Pre-emergence Test SOLNI percentage damage (five point scale) (Solanum nigrum (SOLNI) [12]; rate 1000 g/ha)
4 (4=61-80%): percentage damage caused to the plant, IPOHE ([3]; 1000 g/ha)
3 (3=41-60%): Pre-emergence Test IPOHE percentage damage (five point scale) ([9]; rate 1000 g/ha)
